Some test systems named below: IGROV-1; Malme-3M; MDA-MB-435; HOP-92; NCI/ADR-RES; MDA-N; RXF 393; LOX IMVI; A549; BT-549; U-251; HCT-15; NCI-H226; HCT-116; 786-0; SNB-75; CAKI-1; SK-OV-3; MOLT-4; CCRF-CEM.
Common to all, as to assay: growth of human tumour cells (NCI), 48 h

Each structure is given as a SMILES string.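 Values below derive from 48-hour exposures of cells grown in 96-well plates, with endpoints linearly interpolated between the two concentrations bracketing the appropriate inhibition level. At the GI50, growth is halved.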 The source made the active and inactive calls. Rule as the data show it: active = GI50 up to about 1.1 µM and inactive = higher. Bounds are passed on as bounds.

Regarding `CC(=O)n1c(COS(C)(=O)=O)nc2ccccc21`, the GI50 in the test on IGROV-1 is 66.1 µM (inactive); with Malme-3M, > 100 µM (inactive); with MDA-MB-435, > 100 µM (inactive); in the test on HOP-92 it was > 100 µM (inactive); in the test on NCI/ADR-RES, > 100 µM (inactive); with MDA-N, > 100 µM (inactive). The GI50 is > 100 µM (inactive) in the test with RXF 393; > 100 µM (inactive) in the test with LOX IMVI; > 100 µM (inactive) in the test with A549; > 100 µM (inactive) in the test on BT-549; > 100 µM (inactive) in the test with U-251; greater than 100 µM in the test with HCT-15. Moreover, the GI50 in the test with NCI-H226, in the test on HCT-116, in the test on 786-0, with SNB-75 and in the test with CAKI-1 was > 100 µM (inactive) throughout.
`COC(C(=O)NN)c1ccccc1` (stereo unspecified): the GI50 with IGROV-1, with Malme-3M, in the test on MDA-MB-435, with HOP-92, in the test on NCI/ADR-RES and in the test with SK-OV-3 was > 100 µM (inactive) throughout. Moreover, the GI50 was > 100 µM (inactive) with MDA-N; > 100 µM (inactive) in the test on RXF 393; > 100 µM (inactive) in the test on A549; > 100 µM (inactive) in the test on BT-549; > 100 µM (inactive) in the test on U-251; greater than 100 µM in the test on HCT-15. Moreover, the GI50 in the test with NCI-H226 was > 100 µM (inactive); with MOLT-4 it was > 100 µM (inactive); in the test with 786-0 it was > 100 µM (inactive); in the test on SNB-75, 27.8 µM (inactive); with CAKI-1, > 100 µM (inactive).
Turning to `CC(C)OC(=O)C1=C2c3ncccc3C(=O)N2[C@@H](Cl)[C@@H](Cl)[C@@H]1Cl`, the GI50 in the test with IGROV-1 was 96.4 µM (inactive); in the test with Malme-3M it was > 100 µM (inactive); in the test on MDA-MB-435, > 100 µM (inactive); in the test with HOP-92, > 100 µM (inactive); in the test on NCI/ADR-RES it was > 100 µM (inactive); with MDA-N, 74.1 µM (inactive). For the same compound, the GI50 was > 100 µM (inactive) with RXF 393; > 100 µM (inactive) in the test on LOX IMVI; > 100 µM (inactive) with A549; > 100 µM (inactive) with BT-549; > 100 µM (inactive) with U-251; greater than 100 µM in the test on HCT-15. Also, the GI50 in the test with NCI-H226 was > 100 µM (inactive); with HCT-116 it was > 100 µM (inactive); in the test with MOLT-4 it was 31.8 µM (inactive); in the test with 786-0, 73.8 µM (inactive); in the test with CAKI-1, > 100 µM (inactive).
Turning to `C=CC(C)(O)/C=C/C=C(\C)C(CC1OC1(C)C)OC(=O)/C(C)=C\C` (stereo unspecified), the GI50 in the test on IGROV-1, in the test with Malme-3M, in the test with MDA-MB-435, in the test with HOP-92, with NCI/ADR-RES and with SK-OV-3 was > 100 µM (inactive) throughout. In addition, the GI50 in the test on MDA-N, in the test on RXF 393, in the test with LOX IMVI, in the test with A549, with BT-549 and in the test with U-251 was > 100 µM (inactive) in each case. For the same compound, the GI50 in the test with HCT-15 is greater than 100 µM; with HCT-116, > 100 µM (inactive); with MOLT-4, > 100 µM (inactive); in the test with 786-0 it was > 100 µM (inactive); in the test on SNB-75 it was > 100 µM (inactive); in the test on CAKI-1 it was > 100 µM (inactive).
Turning to `COc1ccc(N2C(=O)c3cccnc3S2(=O)=O)cc1`, the GI50 in the test on IGROV-1, with Malme-3M, in the test with MDA-MB-435, in the test on HOP-92, in the test with NCI/ADR-RES and in the test on SK-OV-3 was > 100 µM (inactive) each time. Further, the GI50 was > 100 µM (inactive) in the test with MDA-N; > 100 µM (inactive) in the test with RXF 393; > 100 µM (inactive) in the test on A549; > 100 µM (inactive) in the test with BT-549; > 100 µM (inactive) in the test with U-251; greater than 100 µM with HCT-15. The GI50 with NCI-H226, in the test with HCT-116, with MOLT-4, with 786-0, in the test with CCRF-CEM and with SNB-75 was > 100 µM (inactive) each time. Besides, the GI50 in the test with CAKI-1 is > 100 µM (inactive).
Regarding `N=C(N)N/N=C/c1nc2sccn2c1[N+](=O)[O-]`, the GI50 with IGROV-1 is 60.4 µM (inactive); in the test on Malme-3M, 13.3 µM (inactive); in the test on MDA-MB-435, 19.8 µM (inactive); in the test with HOP-92, 68.9 µM (inactive); in the test with NCI/ADR-RES it was > 100 µM (inactive); in the test on SK-OV-3 it was 52.5 µM (inactive). For the same compound, the GI50 with MDA-N is 19.6 µM (inactive); with RXF 393, 8.77 µM (inactive); in the test on LOX IMVI, 21.4 µM (inactive); with A549, 35.4 µM (inactive); in the test with BT-549 it was 39.9 µM (inactive); with U-251 it was 28.6 µM (inactive). Further, the GI50 is 47.8 µM in the test on HCT-15; 81.1 µM (inactive) in the test with NCI-H226; 22.4 µM (inactive) with HCT-116; 43 µM (inactive) in the test with 786-0; 11.3 µM (inactive) in the test with SNB-75; > 100 µM (inactive) with CAKI-1.
As for `c1ccc(/N=C(/Nc2ccccc2)N2CCCC2)cc1`, the GI50 in the test on IGROV-1, with Malme-3M, in the test with MDA-MB-435, in the test on HOP-92, in the test with NCI/ADR-RES and with SK-OV-3 was > 100 µM (inactive) in each case. Moreover, the GI50 in the test with MDA-N was > 100 µM (inactive); in the test on LOX IMVI it was > 100 µM (inactive); in the test with A549 it was > 100 µM (inactive); in the test with BT-549, > 100 µM (inactive); with U-251 it was > 100 µM (inactive); in the test with HCT-15 it was greater than 100 µM. The GI50 with NCI-H226, in the test with HCT-116, with MOLT-4, with 786-0, in the test on CCRF-CEM and with SNB-75 was > 100 µM (inactive) each time. Besides, the GI50 in the test on CAKI-1 was > 100 µM (inactive).
Regarding `CCC1(c2ccc(N3C(=O)c4cc(OC)c(OC)cc4C3=O)cc2)CCC(=O)NC1=O` (stereo unspecified), the GI50 in the test on IGROV-1, with Malme-3M, in the test with MDA-MB-435, in the test on HOP-92, with NCI/ADR-RES and in the test on SK-OV-3 was > 10 µM (inactive) throughout. The GI50 in the test with MDA-N, in the test on RXF 393, in the test with LOX IMVI, in the test with A549, in the test with BT-549 and with U-251 was > 10 µM (inactive) each time. For the same compound, the GI50 was greater than 10 µM in the test with HCT-15; > 10 µM (inactive) in the test on NCI-H226; > 10 µM (inactive) in the test on HCT-116; > 10 µM (inactive) in the test with MOLT-4; > 10 µM (inactive) in the test with 786-0; > 10 µM (inactive) in the test with CCRF-CEM. Also, the GI50 in the test with CAKI-1 is > 10 µM (inactive).
In the case of `CCOP1(=O)OCC2OC(n3cnc4c(N)ncnc43)C(O)C2O1.c1ccccc1` (stereo unspecified), the GI50 in the test on IGROV-1, in the test on Malme-3M, with MDA-MB-435, in the test on HOP-92, with NCI/ADR-RES and in the test on SK-OV-3 was > 100 µM (inactive) throughout. For the same compound, the GI50 with MDA-N, in the test with RXF 393, with LOX IMVI, with A549, with BT-549 and in the test on U-251 was > 100 µM (inactive) throughout. In addition, the GI50 in the test on HCT-15 is greater than 100 µM; with NCI-H226 it was > 100 µM (inactive); in the test with HCT-116 it was > 100 µM (inactive); in the test on MOLT-4 it was > 100 µM (inactive); in the test with 786-0 it was > 100 µM (inactive); in the test with SNB-75, > 100 µM (inactive). Also, in the test with CAKI-1, the GI50 was > 100 µM (inactive).
For the compound `S=C(N/N=C\C=N/NC(=S)N1CCCCCC1)N1CCCCCC1`, the GI50 was 26 µM (inactive) with IGROV-1; 22.2 µM (inactive) in the test with Malme-3M; 42.8 µM (inactive) in the test with MDA-MB-435; 59 µM (inactive) in the test on HOP-92; 15.6 µM (inactive) in the test with NCI/ADR-RES; 25.5 µM (inactive) with SK-OV-3. The GI50 in the test with MDA-N was > 68.1 µM (inactive); in the test on RXF 393, 20.6 µM (inactive); with LOX IMVI, 13.5 µM (inactive); in the test on A549 it was 6.85 µM (inactive); in the test with BT-549, > 100 µM (inactive); in the test on U-251 it was 5.21 µM (inactive). Also, the GI50 is 8.02 µM in the test with HCT-15; 28.6 µM (inactive) with NCI-H226; 7.73 µM (inactive) in the test with HCT-116; 7.1 µM (inactive) in the test on MOLT-4; 14.3 µM (inactive) in the test on 786-0; 22.5 µM (inactive) with SNB-75. In addition, in the test with CAKI-1, the GI50 is > 26.7 µM (inactive).
`N=C1CCCC1C(=S)SCCC(N)=O` (stereo unspecified): the GI50 in the test with IGROV-1, in the test with Malme-3M, in the test with MDA-MB-435, in the test with HOP-92, in the test on NCI/ADR-RES and with SK-OV-3 was > 100 µM (inactive) each time. Moreover, the GI50 in the test on MDA-N is > 100 µM (inactive); with RXF 393, > 100 µM (inactive); in the test with A549 it was > 100 µM (inactive); in the test on BT-549, > 100 µM (inactive); in the test with U-251 it was > 100 µM (inactive); in the test with HCT-15 it was greater than 100 µM. In addition, the GI50 with NCI-H226 was > 100 µM (inactive); in the test with HCT-116, > 100 µM (inactive); in the test with MOLT-4, > 100 µM (inactive); in the test on 786-0, > 100 µM (inactive); with CCRF-CEM, > 100 µM (inactive); with SNB-75, 61.4 µM (inactive). For the same compound, in the test on CAKI-1, the GI50 is > 100 µM (inactive).
